PMC7023064, “Design, Synthesis, and Evaluation of Novel 2-Methoxyestradiol Derivatives as Apoptotic Inducers through an Intrinsic Apoptosis Pathway” (Biomolecules, 2020)
Where two headings read alike, the source gives them in different places.

Legend:
[1] = test system: human breast adenocarcinoma MCF-7 cell lines; experiment: MTT cytotoxicity assay, MCF-7; format: cell-based
Experimental: (§1) Human breast adenocarcinoma MCF-7 cell lines, human breast cancer MDA-MB-231 cell lines, and the normal human liver L-O2 cell lines were provided by Nanjing KeyGen Biotech Co. Ltd. (Nanjing, China). MCF-7 cells were cultured in a base medium (90% RPMI-1640 and 10% FBS) at 37 °C, 5% CO2 and a saturated humidity atmosphere. MDA-MB-231 cells were cultured in a base medium (90% […] and 10% FBS) at 37 °C, 5% CO2 and a saturated humidity atmosphere. L-O2 cells were cultured in a base medium (90% DMEM and 10% FBS) at 37 °C, 5% CO2 and a saturated humidity atmosphere.
(§2) The cytotoxicity of the tested compounds was determined using the 3-(4,5-dimethyl-2-thiazolyl)-2,5-diphenyl-2-H-tetrazolium bromide (MTT) assay. Cells were seeded in 96-well plates and incubated in a 5% CO2 incubator at 37 °C. When the cells adhered, compounds at different concentrations were added to every well. After incubation for another 72 h, MTT solution (5 mg/mL) was added into each well and cells were incubated for an additional 4 h. The viable cells were stained with MTT and scanned with an electrophotometer at 570 nm. Each concentration treatment was done in triplicate wells. The half maximal inhibitory concentration (IC50) values were estimated by fitting the inhibition data to a dose-dependent curve using a logistic derivative equation.

[2] = test system: normal human liver L-O2 cell lines; experiment: MTT cytotoxicity assay, L-O2; format: cell-based; settings: mean ± SD of three experiments, No = No inhibition detected
Experimental: as §1, §2

[3] = test system: MCF-7 cells; experiment: Cell apoptosis analysis (Annexin V-APC/7-AAD double staining); format: cell-based, human; settings: 72 h
Experimental: MCF-7 cells at a density of 2 × 10^5 cells/well were seeded on each well of 6-well plates and allowed to grow overnight. Then the cells were treated with compound 11/12a (5, 10, and 20 μM) for 72 h, while cells without treatment were used as control group. The treated cells were trypsinized and washed with cold PBS twice, then centrifuged at 2000 rpm for 5 min and resuspended in 500 μL annexin V binding buffer. 5 μL of Annexin V- allophycocyanin (APC) was added, and the mixture was incubated in the dark at 25 °C for 15 min. Then, 5 μL of 7-AAD was added just prior to acquisition. Apoptosis was analyzed by Annexin V-APC and 7-AAD double staining by flow cytometry (FACS Calibur Becton-Dickinson, San Jose, Califormia, USA).

[4] = target: T1, estradiol receptor alpha (ERα) (Homo sapiens, UniProt P03372); experiment: Immunohistochemical (IHC) analysis of ERα; format: cell-based; settings: 5, 10, and 20 μM, MCF-7 cells, dose-dependent
T1 construct: endogenous in cells; host or cells: MCF-7
T1 sequence (P03372 1-595): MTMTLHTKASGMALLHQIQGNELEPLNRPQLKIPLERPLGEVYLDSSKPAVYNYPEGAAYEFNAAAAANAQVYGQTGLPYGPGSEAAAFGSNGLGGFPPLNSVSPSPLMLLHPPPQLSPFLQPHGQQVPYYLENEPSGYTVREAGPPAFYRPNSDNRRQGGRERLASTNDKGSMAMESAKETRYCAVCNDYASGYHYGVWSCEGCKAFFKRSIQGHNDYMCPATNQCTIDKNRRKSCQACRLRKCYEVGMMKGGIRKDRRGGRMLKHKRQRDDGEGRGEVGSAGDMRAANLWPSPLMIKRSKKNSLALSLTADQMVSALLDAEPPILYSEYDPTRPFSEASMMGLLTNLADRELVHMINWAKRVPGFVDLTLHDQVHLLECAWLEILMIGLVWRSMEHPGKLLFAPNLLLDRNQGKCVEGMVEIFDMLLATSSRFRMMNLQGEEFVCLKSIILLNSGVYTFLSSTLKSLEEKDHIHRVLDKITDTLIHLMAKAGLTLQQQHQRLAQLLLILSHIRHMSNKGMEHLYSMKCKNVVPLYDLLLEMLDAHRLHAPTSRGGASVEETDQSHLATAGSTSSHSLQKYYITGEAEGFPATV
Experimental: MCF-7 cells were seeded in culture plates and treated with compound 11/12a (0, 5, 10, and 20 μM) for 72 h. Cells were collected and mounted on a slide, fixed for 30 min with 4% paraformaldehyde, and washed three times with PBS. 1% Triton X-100 was added to each cell sample, and it was permeabilized at room temperature for 10 min, then washed three times with PBS. Two drops of 3% H2O2-methanol solution were added to each cell section. After being blocked at room temperature for 10 min, the section was washed three times with PBS. Then, 50–100 μL of ready-to-use goat serum was added and cells were incubated for 20 min at room temperature. Before the cell section was incubated at 37 °C for 2 h in a wet box, 50–100 μL of a primary antibody (1:200 dilution) against estradiol receptor alpha (ERα) (Bs-1427R, Bioss Co. Ltd., Beijing, China) was added, and then washed three times with PBS. Subsequently, 50 μL of enhancer was added and cells were incubated for 30 min at room temperature, then washed three times with PBS. Fifty microliters of a universal IgG antibody-Fab fragment-HRP multimer was added dropwise, and the mixture was incubated at 37 °C for 30 min, then soaked and washed three times with PBS. After 2 drops of freshly prepared DAB (DAB-1031, MaXi Biotech Co. Ltd., FuZhou, China) solution were added to each cell section, the dyeing depth was observed under the microscope. […]

[5] = test system: MCF-7 cells; experiment: Hoechst 33258 staining; format: cell-based, human; settings: 0, 5, 10, and 20 μM, 72 h; at higher concentrations
Experimental: The nuclear morphological changes and apoptotic effects induced by compound 11/12a were detected using Hoechst 33,258 staining. Cells grown on a sterile cover slip were treated with 11/12a for 72 h in six-well tissue culture plates. Cells were collected and mounted on a slide, fixed for 30 min with 4% paraformaldehyde, and washed three times with PBS. Then, cells were stained with Hoechst 33,258 (2 mg/mL in PBS) for 10 min at room temperature in the dark. The cells were subsequently washed three times with PBS and observed with a fluorescence microscope.

[6] = test system: MCF-7 and MDA-MB-231 cell lines; experiment: MTT assay, summary over tested tumor cells; format: cell-based, human; settings: for selectivity towards cancerous cell lines vs healthy cell line: MCF-7 and MDA-MB-231 vs L-O2
Experimental: as §1, §2

Compound	IC50 ([1]; MTT, 72 h, mean ± SD of three experiments, read-out: IC50 MCF-7) [µM]	IC50 ([1]; Table 2, mean ± SD of three experiments, read-out: IC50 for MCF-7) [µM]	pIC50 for MCF-7 ([1]; pIC50 = −log(IC50))	IC50 ([2]; 72 h) [µM]	total early and late apoptotic cells ([3]; 5 μM) [%]	total early and late apoptotic cells ([3]; 10 μM) [%]	total early and late apoptotic cells ([3]; 20 μM) [%]	interaction with ERα (nuclear colour, IOD value) [4]	Hoechst 33258 fluorescence / cell morphology [5]	selectivity towards cancerous cell lines vs healthy cell line [6]	IC50 ([1]; Homo sapiens, MCF7, MTT, 72 h, mean ± SD of three experiments, read-out: IC50 MCF-7) [µM]	IC50 ([1]; Homo sapiens, MCF7, Table 2, mean ± SD of three experiments, read-out: IC50 for MCF-7) [µM]	IC50 ([1]; Homo sapiens, MCF7, pIC50 = −log(IC50), read-out: pIC50 for MCF-7 (converted)) [µM]	IC50 ([2]; Homo sapiens, L02, 72 h) [µM]	IC50 ([6]; Homo sapiens, MCF-7 and MDA-MB-231, read-out: IC50, anti-proliferative activity against tested tumor cells) [µM]	melting point [°C]
17 β-[6-(Uracil-3-yl)-Hexyloxy]-2-Methoxy-Estra-1,3,5(10)-Triene-3-ol [Compound 12a]	11.2 ± 0.46	11.2 ± 0.46	4.95	69.3 ± 4.37	12.1	30.86	67.28	specific binding	stronger blue fluorescence	about 6 fold						
COc1cc2c(cc1O)CC[C@@H]1[C@@H]2CC[C@]2(C)[C@@H](OCCCCCCCCn3c(=O)ccn([C@@H]4O[C@H](CO)[C@@H](O)[C@H]4O)c3=O)CC[C@@H]12 [Compound 11, 17 β-[8-(1-β-D-Ribofuranosyluracil-3-yl)-Octyloxy]-2-Methoxy-Estra-1,3,5(10)-Triene-3-ol]					13.21	33.24	67.74	specific binding	stronger blue fluorescence	~7 fold	13.9 ± 0.16	13.9 ± 0.16	13.8	> 100	3.89 to 16.7	95 to 96
